US20260049078A1, “DIFLUORO- AND TRIFLUORO-ACETYL HYDRAZIDES AS SELECTIVE HDAC6 INHIBITORS” (ITALFARMACO S.P.A., priority 2022, published 2026)

Key:
[1] = target: zHDAC6-CD2 wt (Danio rerio (Zebrafish) (Brachydanio rerio), UniProt F8W4B7); experiment: Isolation of long-lived/tight complex (spin column chromatography with LC-HRMS); type: binding; details: zHDAC6-CD2 wt 1 μM, compound 5 μM, 6 hours, Bio-Spin P-6
Method: Rapid chromatography on spin columns coupled to LC-HRMS was used to attempt the isolation of long-lived/tight complexes between HDAC6 and examples 1 and 1-A. zHDAC6-CD2 wt (1 μM) was incubated with 1 (5 μM) or 1-A (also 5 μM) as described before for 6 hours. An aliquot (60 μL) was loaded on a Bio-Spin P-6 Gel Column (Bio-Rad) that had been equilibrated with assay buffer in order to separate the HDAC6-inhibitors complexes from free compounds. After centrifugation to elute the initial fraction containing most of the enzyme, ten 200 μL aliquots were applied and eluted by centrifugation to collect the low molecular weight (free) compounds. Aliquots of the fractions were subjected to LC-HRMS analysis (as described above) for identification and quantitation of 1 and its derivatives.

[2] = tested on: SH-SY5Y cells; experiment: In vitro α-tubulin acetylation in undifferentiated SH-SY5Y cells; type: cell-based; details: overnight, @1uM
Method: SH-SY5Y cells (ATCC, cod. CRL-2266) are plated in optical optimized 96-well black plates (Perkin Elmer, cod. 6055302) at 5000 cells/well in 100 μl/well of growth medium (DMEM/F12 (1:1)+10 mM hepes+100 units/mL of penicillin+100 μg/mL of streptomycin+10% of inactivated Foetal calf serum (FCS, Hyclone)).
After 24 h of seeding, cells are incubated overnight with the selected molecules at 0.1-1-10 μM. ACY1083 and Tubastatin A, at the same doses, are tested as positive controls of α-Tubulin acetylation, while untreated cells are incubated with 0.01% DMSO and indicated as CTRL DMSO.
At the end of the incubation, cells are fixed adding 100 μL/well of formaldehyde 8% in PBS (final formaldehyde concentration 4% in 200 μL/well) directly in the 100 μL/well of medium, for 30 min at RT. The fixing solution is carefully removed, and wells are washed twice with PBS for 10 min each. Fixed cells are kept in PBS at 4° C. until staining.
The day of the staining experiment, the fixed cells are incubated 60 min with the blocking buffer (PBS with 5% FCS+0.3% Triton™ X-100). While blocking, primary antibodies are prepared by diluting 1:200 the α-Tubulin Alexa Fluor 488 Conjugate (Cell Signaling, cod. 5063) antibody and 1:50 Acetyl-α-Tubulin Alexa Fluor 647 Conjugate (Cell Signaling, cod. 81502) antibody in the Antibody Dilution Buffer (PBS with 1% BSA+0.3% Triton™ X-100). Once the blocking solution is aspirated, the diluted primary antibodies are applied and incubated overnight at 4° C. The next day, cells are rinsed twice with PBS (10 min each), incubated 5 min with 300 nM DAPI in PBS, and then rinsed twice with PBS (10 min each). For each treatment, 3 wells are stained.
Images of the stained cells are acquired by means of the IN Cell Analyzer 2500 HS Instrument, using: far red channel for Acetyl-α-Tubulin staining (exposure 0.02 sec), green channel for α-Tubulin staining (exposure 0.02 sec), and blue channel for DAPI (nuclei) staining. For each well, 10 images are acquired.
Images of stained cells are analysed with the InCarta software (Molecular Devices) for obtaining fluorescence intensity considering whole cells. For each treatment, mean values of Cell intensity—Bckg (Cell), for both staining, are obtained using the InCarta raw data by FOV (Field of View). Results are expressed as fold increase of the ratio of acetylated tubulin and total tubulin towards control (CTRL DMSO).

[3] = tested on: human B cell precursor leukemia 697; experiment: In vitro α-tubulin acetylation in 697 cell line; type: cell-based; details: Homo sapiens, B-cell, 16 h; read-out: TubAc 697 cells EC50
Method: The in vitro α-tubulin acetylation was evaluated on human B cell precursor leukemia 697.
The 697 cells were maintained in RPMI Medium 1640 (Gibco, cat: 21875-034) supplemented with 10 mM HEPES (Gibco, cat: 15630-080), Pen-Strep (Penicillin 100 U/ml, Streptomycin 100 μg/ml, Gibco, cat: 15140-122) and 10% fetal bovine serum (Gibco, cat: 10270-106).
The cells were plated in 12-well plates (Costar, cat: 3512) at the density of 5.5×10^5 cells/ml.
Serial dilutions of test compounds in DMSO were prepared using 20 mM stock solutions to obtain 8 doses 200× concentrated in respect to final doses (2.7-100000 nM). Then the DMSO solutions were diluted 10× in culture medium to obtain 20× concentrated solutions which were used for cells treatment (125 μl of medium solutions were added to 2.375 ml of cells suspension). The final DMSO content was set as 0.5%. The plates were incubated at 37° C., 5% CO2 for 16 hours.
At the end of the incubation period, the cells were harvested and centrifuged for 5 minutes at 200×g and washed with 0.9% NaCl at 4° C. The resulting pellet was treated for 30 minutes at 4° C. with 100 μl Complete Lysis-M buffer containing protease inhibitors (Complete Lysis-M Roche+Complete Tablets, Mini Easypack, cat: 4719956001) and phosphatase inhibitor cocktails (PhosStop Easypack, Roche, cat: 4906837001) and then centrifuged 10 minutes at 18213×g. The protein concentration in each supernatant was determined using BCA Protein Assay Kit (Pierce, cat: 23227). The samples were diluted in PBS 1× to obtain 2 μg/ml concentration and coated in MaxiSorp 96-well plates (Nunc, cat: 442404). The plates were incubated overnight at room temperature.
Plates were washed twice with Wash Buffer (PBS 1×+0.005% tween 20) and saturated for 1 hour at room temperature with 300 μL of 1×PBS containing 10% FBS. After washing twice with Wash Buffer, the plates were incubated for 2 hours at room temperature in the presence of 100 μl/well either anti-acetylated-α-tubulin antibody (Monoclonal Anti-Tubulin, Acetylated antibody produced in mouse, Sigma-Aldrich, cat: T6793) or total anti-α-tubulin antibody (Monoclonal Anti-α-Tubulin produced in mouse, Sigma-Aldrich, cat: T6074) diluted 1:1000 in 1×PBS containing 10% FBS. Following 5 washing cycles with Wash Buffer the secondary antibody conjugated with the enzyme HRP (Goat anti-Mouse IgG, IgM, IgA (H+L), stock concentration 0.5 mg/ml, Thermo Fisher Scientific, cat: A10668), diluted 1:1000 in 1×PBS+10% FBS was added at the volume of 100 μl/well. After two hours of incubation at room temperature the plates were washed 4 times with Wash Buffer, then 100 μl/well of TMB substrate (TMB substrate kit, Thermo Fisher Scientific, cat: 34021) was added for 10 minutes at room temperature in the dark. The reaction was stopped by adding 50 μl of 2M H2SO4. The plates were read in BioTek Synergy H1 multimode microplate reader at a wavelength of 450 nm.
The measured absorbance was corrected by subtracting the mean of blank values (samples without the primary antibody). The absorbance ratios of acetyl to total tubulin assays were calculated and normalized to the reference compound (positive control) 4 parameter logistic curve, where 0% is the fitted bottom and 100% is the fitted top of the curve. The results are expressed as relative EC50.

[4] = target: recombinant human HDAC1 (Homo sapiens (Human), UniProt Q13547); experiment: Enzyme inhibitory activity assay on HDAC1; type: biochemical; details: 120 minutes preincubation at 25° C.
Sequence of recombinant human HDAC1 (Q13547 whole entry): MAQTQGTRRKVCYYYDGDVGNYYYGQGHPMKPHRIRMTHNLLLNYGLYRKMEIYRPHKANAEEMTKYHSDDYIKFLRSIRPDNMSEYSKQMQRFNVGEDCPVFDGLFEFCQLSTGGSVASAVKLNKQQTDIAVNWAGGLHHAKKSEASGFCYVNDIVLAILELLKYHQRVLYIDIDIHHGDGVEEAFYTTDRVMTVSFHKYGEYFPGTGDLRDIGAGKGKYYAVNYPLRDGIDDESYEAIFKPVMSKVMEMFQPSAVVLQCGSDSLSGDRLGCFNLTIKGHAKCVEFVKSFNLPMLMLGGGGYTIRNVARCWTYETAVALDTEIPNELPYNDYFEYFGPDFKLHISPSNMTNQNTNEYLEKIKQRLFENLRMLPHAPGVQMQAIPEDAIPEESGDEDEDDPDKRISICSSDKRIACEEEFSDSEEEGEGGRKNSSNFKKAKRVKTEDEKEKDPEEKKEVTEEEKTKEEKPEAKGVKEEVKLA
Method: (§1) For each test compound, 100× concentrated DMSO solutions at 8 doses were prepared and then diluted in assay buffer (25 mM Tris-HCl, pH 8, 130 mM NaCl, 0.05% Tween-20, 10% Glycerol) to obtain 5× concentrated solutions in relation to the final concentrations (typical final concentration range—6.4-200000 nM or 0.18-50000 nM, final DMSO content—1%). Then 10 μL solution of each test compound concentration were placed on a 96-well plate in triplicate and 15 μL of 3.33× concentrated enzyme solution in the assay buffer containing 3.33× concentrated BSA (final BSA concentration 1 mg/mL) and, in case of HDAC6, 3.33× concentrated TCEP (final TCEP concentration—200 μM) were added to each well. After a period of preincubation at 25° C. (30 minutes for HDAC6 and 120 minutes for HDAC1), 25 μL of solution containing the substrate were added. As substrate, FLUOR DE LYS® deacetylase substrate (Enzo Life Sciences, cat: BML-KI104, FdL), FLUOR DE LYS®-Green substrate (Enzo Life Sciences, cat: BML-KI572, FdL_G) or Boc-Lys(Tfa)-AMC (Bachem, cat: 4060676.005, Tfal)—2× concentrated solution in assay buffer were used. Following a reaction period (30 minutes at 25° C.), 50 μL of the development solution consisting of concentrate FLUOR DE LYS® developer I (Enzo Life Sciences, ca: BML-KI105), diluted 200 times in buffer (50 mM Tris-HCl, pH 8, 137 mM NaCl, 2.7 mM KCl, 1 mM MgCl2) plus 2 μM TSA was added and, after 25 minutes at room temperature in the dark, using the Victor 1420 Multilabel Counter Perkin Elmer Wallac instrument, the fluorescence reading was carried out (excitation/emission: 485/535 nM—Fluor de Lys Green, 355/460 nM—Tfal, Fluor de Lys).
(§2) Enzymatic activity on recombinant human HDAC6 and HDAC1 was evaluated (Table 2) for each synthesized compound.

[5] = target: recombinant human HDAC6 (Homo sapiens (Human), UniProt Q9UBN7); experiment: Enzyme inhibitory activity assay on HDAC6; type: biochemical; details: 30 minutes preincubation at 25° C.
Sequence of recombinant human HDAC6 (Q9UBN7 whole entry): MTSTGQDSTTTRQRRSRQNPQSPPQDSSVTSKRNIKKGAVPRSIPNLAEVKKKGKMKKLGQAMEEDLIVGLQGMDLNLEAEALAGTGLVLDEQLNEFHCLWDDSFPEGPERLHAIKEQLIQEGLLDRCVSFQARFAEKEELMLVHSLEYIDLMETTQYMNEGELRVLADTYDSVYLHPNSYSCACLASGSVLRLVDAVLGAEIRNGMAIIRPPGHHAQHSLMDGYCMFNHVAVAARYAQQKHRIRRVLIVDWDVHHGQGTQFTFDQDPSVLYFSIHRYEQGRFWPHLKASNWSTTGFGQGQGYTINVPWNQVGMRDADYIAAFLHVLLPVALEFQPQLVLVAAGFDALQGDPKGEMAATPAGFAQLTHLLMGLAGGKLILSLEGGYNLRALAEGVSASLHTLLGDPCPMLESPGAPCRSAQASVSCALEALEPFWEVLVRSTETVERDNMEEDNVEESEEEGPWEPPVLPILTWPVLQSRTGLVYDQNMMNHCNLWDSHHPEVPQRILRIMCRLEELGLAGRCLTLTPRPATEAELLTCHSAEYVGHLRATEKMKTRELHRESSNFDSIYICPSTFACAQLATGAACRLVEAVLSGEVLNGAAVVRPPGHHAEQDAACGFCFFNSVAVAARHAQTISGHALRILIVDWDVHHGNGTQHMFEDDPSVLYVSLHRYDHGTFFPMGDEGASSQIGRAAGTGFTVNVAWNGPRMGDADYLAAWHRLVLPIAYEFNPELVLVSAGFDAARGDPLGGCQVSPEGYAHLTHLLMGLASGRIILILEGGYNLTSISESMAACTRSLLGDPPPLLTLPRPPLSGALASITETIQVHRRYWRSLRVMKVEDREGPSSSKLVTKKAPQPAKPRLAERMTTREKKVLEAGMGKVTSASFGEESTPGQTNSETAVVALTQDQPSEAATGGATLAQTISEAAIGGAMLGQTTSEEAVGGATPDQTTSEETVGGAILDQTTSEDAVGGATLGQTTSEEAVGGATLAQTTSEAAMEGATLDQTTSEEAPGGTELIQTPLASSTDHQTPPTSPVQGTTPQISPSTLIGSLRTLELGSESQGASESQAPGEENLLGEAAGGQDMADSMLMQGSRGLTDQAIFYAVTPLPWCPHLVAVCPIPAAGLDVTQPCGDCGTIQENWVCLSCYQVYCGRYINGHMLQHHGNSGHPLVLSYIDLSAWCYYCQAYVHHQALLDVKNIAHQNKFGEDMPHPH
Method: as §1, §2

Sequence of zHDAC6-CD2 wt (F8W4B7 entry or part of it del 1-439/del 799-1081 limits assumed): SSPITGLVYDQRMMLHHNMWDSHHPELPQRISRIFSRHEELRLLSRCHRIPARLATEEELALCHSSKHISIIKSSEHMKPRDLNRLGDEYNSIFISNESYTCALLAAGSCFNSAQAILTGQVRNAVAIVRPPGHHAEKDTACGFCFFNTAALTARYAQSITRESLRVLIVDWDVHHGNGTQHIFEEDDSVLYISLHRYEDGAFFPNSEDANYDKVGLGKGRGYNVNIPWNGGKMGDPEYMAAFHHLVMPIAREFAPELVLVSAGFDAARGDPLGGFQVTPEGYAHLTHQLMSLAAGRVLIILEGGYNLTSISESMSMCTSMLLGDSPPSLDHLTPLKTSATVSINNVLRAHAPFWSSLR

co-elution with the enzyme (fraction 1) [1]	EC50 [3]	IC50 [4]	IC50 [5]	Structure (SMILES)	TubAc SH-SY5Y cells fold increase of the ratio of acetylated tubulin and total tubulin towards control [2]
co-elutes with the enzyme				O=C(NNC(=O)C(F)F)c1ccc(Cn2cc(-c3ccc(NC4=NCCN4)cc3)nn2)cc1 [Compound 1, N′-(2,2-difluoroacetyl)-4-((4-(4-((4,5-dihydro-1H-imidazol-2-yl)amino)phenyl)-1H-1,2,3-triazol-1-yl)methyl)benzohydrazide]	
	320 nM	> 100000 nM	14 nM	CC(c1ccc(-c2nnc(C(F)F)o2)cn1)n1cc(-c2ccc(N)nc2)nn1 (centres unmarked) [Compound 39-A]	6.5 fold
